Measured values taken from patent publication US11572341B2, “Biguanide compound and use thereof” (ImmunoMet Therapeutics Inc., priority 2014, dated 2023).
Where a name gives a salt, the structure may show the parent alone.

Tests used:
AMPKa [pT172] = test: AMPKa activation [pT172] in MCF7 cell; type: cell-based
HCT116 cells = test: Inhibitory effect against cancer cell proliferation (MTT); type: cell-based, human; conditions: Homo sapiens, HCT-116; HCT116, MTT, 48 hours; read-out: IC50 (uM) @ HCT116
Protocol: The formazane crystals thus formed were dissolved using dimethyl sulfoxide (DMSO) and absorbance of the solution was measured at 560 nm. After culturing for 48 hours, […] synthesized in Examples was indicated as cell viability (%) according to each treated concentration.

| IC50 (HCT116 cells) [µM] | Structure (SMILES) | AMPKa activation [pT172] (Unit/ml) @ MCF7 cell (AMPKa [pT172]; 50 uM) | AMPKa activation [pT172] (Unit/ml) @ MCF7 cell (AMPKa [pT172]; 5 uM) [Unit/ml] | AMPKa activation [pT172] (Unit/ml) @ MCF7 cell (AMPKa [pT172]; 10 uM) [Unit/ml] |
| --- | --- | --- | --- | --- |
| – | CN(C)C(=N)NC(=N)N1CCCCC1.Cl [Example 1, N1,N1-dimethyl-N5-piperidine Biguanide Hydrochloride] | 4.6 Unit/ml | – | – |
| – | Cl.N=C(NC(=N)N1CCCCC1)N1CCCCC1 [Example 2, N1-piperidin-N5-piperidine Biguanide Hydrochloride] | 4.9 Unit/ml | – | – |
| – | CN(C)C(=N)NC(=N)N(C)Cc1cccc2ccccc12.Cl [Example 3, N1,N1-dimethyl-N5-methyl-N5-1-(naphthalen-1-yl)methyl Biguanide Hydrochloride] | 6.2 Unit/ml | – | – |
| – | CN(C)C(=N)NC(=N)NCc1ccc2c(c1)OCO2.Cl [Example 4, N1,N1-dimethyl-N5-(benzo[d][1,3]dioxol-5-yl)methyl Biguanide Hydrochloride] | 3.8 Unit/ml | – | – |
| – | Cl.N=C(NC(=N)N1CCCC1)N1CCCCC1 [Example 5, N1-piperidin-N5-pyrrolidine Biguanide Hydrochloride] | 5.8 Unit/ml | – | – |
| – | Cl.N=C(NCc1ccc2c(c1)OCO2)NC(=N)N1CCCCC1 [Example 9, N1-piperidin-N5-(benzo[d][1,3]dioxol-5-yl)methyl Biguanide Hydrochloride] | 16.3 Unit/ml | – | – |
| 4.8 | N=C(NC(=N)Nc1cccc(Br)c1)Nc1cccc(Br)c1 [Example 11, N1-(3-bromo)phenyl-N5-3-bromo)phenyl Biguanide Hydrochloride] | – | – | – |
| – | Cl.N=C(NCCc1ccc(Cl)cc1)NC(=N)N1CCCCC1 [Example 13] | 7.0 Unit/ml | – | – |
| – | Cl.N=C(NCCc1ccccc1Cl)NC(=N)N1CCCCC1 [Example 14] | 11.0 Unit/ml | – | – |
| 8.4 | CCOC1CCN(C(=N)NC(=N)Nc2cccc(OC(F)(F)F)c2)CC1.Cl [Example 25, N1-(4-ethoxy)piperidin-N5-3-trifluoromethoxy)phenyl Biguanide Hydrochloride] | – | – | – |
| – | CCOC1CCN(C(=N)NC(=N)Nc2cccc(OC(F)(F)F)c2)CC1.Cl [Example 25] | cell death | 5.8 | 7.0 |
| > 100 | CN1CCN(C(=N)NC(=N)Nc2ccc(Cl)cc2)CC1.Cl [Example 27, N1-(4-methyl)piperazin-N5-4-chloro)phenyl Biguanide Hydrochloride] | – | – | – |
| – | CN1CCN(C(=N)NC(=N)Nc2ccc(Cl)cc2)CC1.Cl [Example 27] | 14.3 Unit/ml | 9.8 | 8.7 |
| > 100 | CN1CCN(C(=N)NC(=N)NCc2cccc(Cl)c2)CC1.Cl [Example 35, N1-(4-methyl)piperazin-N5-3-chloro)benzyl Biguanide Hydrochloride] | – | – | – |
| – | CN1CCN(C(=N)NC(=N)NCc2cccc(Cl)c2)CC1.Cl [Example 35] | 3.4 Unit/ml | 5.0 | 4.2 |
| > 100 | CN1CCN(C(=N)NC(=N)Nc2ccc(F)c(F)c2)CC1.Cl [Example 38, N1-(4-methylpiperazin-N5-(3,4-difluoro)phenyl Biguanide Hydrochloride] | – | – | – |
| – | CN1CCN(C(=N)NC(=N)Nc2ccc(F)c(F)c2)CC1.Cl [Example 38] | 6.4 Unit/ml | 5.9 | 5.1 |
| 23.7 | Cl.N=C(NCc1ccc(OC(F)(F)F)cc1)NC(=N)Nc1cccnc1 [Example 42, Hydrochloride] | – | – | – |
| – | Cl.N=C(NCc1ccc(OC(F)(F)F)cc1)NC(=N)Nc1cccnc1 [Example 42] | 19.1 Unit/ml | 4.3 | 8.7 |
| 10.4 | CC1CCN(C(=N)NC(=N)Nc2ccc(Cl)cc2)CC1.Cl [Example 55, N1-4-methyl)piperidin-N5-(4-chloro)phenyl Biguanide Hydrochloride] | – | – | – |
| – | CC1CCN(C(=N)NC(=N)Nc2ccc(Cl)cc2)CC1.Cl [Example 55] | cell death | 3.5 | 5.3 |

| IC50 (HCT116 cells) [µM] | Structure (SMILES) | AMPKa activation [pT172] (Unit/ml) @ MCF7 cell (AMPKa [pT172]; 50 uM) | AMPKa activation [pT172] (Unit/ml) @ MCF7 cell (AMPKa [pT172]; 5 uM) [Unit/ml] | AMPKa activation [pT172] (Unit/ml) @ MCF7 cell (AMPKa [pT172]; 10 uM) [Unit/ml] |
| --- | --- | --- | --- | --- |
| 37.7 | Cl.N=C(NC(=N)N1CCCC1)Nc1ccc(Br)cc1 [Example 72, N1-pyrrolidin-N5-4-bromo)phenyl Biguanide Hydrochloride] | – | – | – |
| – | Cl.N=C(NC(=N)N1CCCC1)Nc1ccc(Br)cc1 [Example 72] | 19.1 Unit/ml | 5.4 | 6.6 |
| – | CCCCN/C(=N\C1CCCCCC1)NC(=N)N.Cl [Example 92, N1-butyl-N2-cycloheptyl Biguanide Hydrochloride] | 21.1 Unit/ml | – | – |
| – | CN(C)/C(=N\Cc1ccc(F)cc1)NC(=N)N1CCCCC1.Cl [Example 93, N1,N1-dimethyl-N2-(4-fluoro)benzyl-N5-piperidine Biguanide Hydrochloride] | 6.6 Unit/ml | – | – |
| 8.2 | C/N=C(\NCc1ccccc1)NC(=N)N(C)C [Example 96, N1-benzyl-N2-methyl-N5,N5-dimethyl Biguanide Hydrochloride] | – | – | – |
| – | CNC(=N)NC(=N)N.Cl [Example 108, N1-methyl Biguanide Hydrochloride] | 3.9 Unit/ml | – | – |
| – | Cl.N=C(N)NC(=N)N1CCOCC1 [Example 118] | 6.0 Unit/ml | – | – |
| – | Cl.N=C(N)NC(=N)Nc1ccc(OC(F)(F)F)cc1 [Example 140] | 8.7 Unit/ml | 6.2 | 6.6 |
| – | CC1(C)CC(=O)N=C(NC(=N)N2CCCCC2)N1.Cl [Example 151, N-(6,6-dimethyl-4-oxo-1,4,5,6-tetrahydropyrimidin-2-yl)piperidin-1-carboximidamide Hydrochloride] | 11.2 Unit/ml | 9.4 | 7.7 |
| – | CC1(C)CC(=O)N=C(NC(=N)N)N1.Cl [Example 152] | 8.6 Unit/ml | 7.9 | 8.1 |
| – | Cl.N=C(NC1=NCCCN1)N1CCCCC1 [Example 153, N-(1,4,5,6-tetrahydropyrimidin-2-yl)piperidin 1-carboximidamide Hydrochloride] | 6.3 Unit/ml | 8.0 | 6.8 |
| – | Cl.N=C(NC1=NC(=O)CC(C2CC2)N1)N1CCCCC1 (stereo not drawn) [Example 157, N-(6-cyclopropyl-4-oxo-1,4,5,6-tetrahydropyrimidin-2-yl)piperidin-1-carboximidamide Hydrochloride] | 2.00 Unit/ml | 4.17 | 2.68 |
| – | CC1CN=C(NC(=N)N2CCCCC2)NC1.Cl (stereo not drawn) [Example 158, N-(5-methyl-1,4,5,6-tetrahydropyrimidin-2-yl)piperidin-1-carboximidamide Hydrochloride] | 3.75 Unit/ml | 3.11 | 2.49 |
| – | CC(C)C1CC(=O)N=C(NC(=N)N2CCCCC2)N1.Cl (stereo not drawn) [Example 159, N-(6-isopropyl-4-oxo-1,4,5,6-tetrahydropyrimidin-2-yl)piperidin-1-carboximidamide Hydrochloride] | 3.02 Unit/ml | 2.17 | 2.35 |
| – | CC1CNC(NC(=N)N)=NC1=O.Cl (stereo not drawn) [Example 160, 1-(5-methyl-4-oxo-1,4,6-tetrahydropyrimidin-3-yl)guanidine Hydrochloride] | 2.84 Unit/ml | 2.51 | 2.65 |
| – | CC(C)CC1CC(=O)N=C(NC(=N)N2CCCCC2)N1.Cl (stereo not drawn) [Example 161, N-(6-isobutyl-4-oxo-1,4,5,6-tetrahydropyrimidin-2-yl)piperidin-1-carboximidamide Hydrochloride] | 4.06 Unit/ml | 3.03 | 2.73 |
| – | CC1CCNC(NC(=N)N2CCCCC2)=N1.Cl (stereo not drawn) [Example 162, N-(4-methyl-1,4,5,6-tetrahydropyrimidin-2-yl)piperidin-1-carboximidamide Hydrochloride] | 7.34 Unit/ml | 4.41 | 4.04 |
| – | CCCC1CC(=O)N=C(NC(=N)N2CCCCC2)N1.Cl (stereo not drawn) [Example 163, N-(6-propyl-4-oxo-1,4,5,6-tetrahydropyrimidin-2-yl)piperidin-1-carboximidamide Hydrochloride] | 4.48 Unit/ml | 4.07 | 3.76 |
| – | CC1CC(=O)N=C(NC(=N)N)N1.Cl (stereo not drawn) [Example 164] | 2.77 Unit/ml | 2.89 | 3.43 |
| – | CCC1CCNC(NC(=N)N2CCCCC2)=N1.Cl (stereo not drawn) [Example 165, N-(4-ethyl-1,4,5,6-tetrahydropyrimidin-2-)piperidin-1-carboximidamide Hydrochloride] | 9.16 Unit/ml | 3.80 | 4.36 |
